The values below come from patent US11957687B2 (REGENERON PHARMACEUTICALS, INC., priority 2019, dated 2024).

Where only a bound is given, the exact number is not on record here.

Data set [1] can be described thus: Microsome stability assay, mouse liver microsomes. In kind it is in vitro ADME. The settings on record: 1 μM compound, 0.5 mg/mL microsomal protein; for microsomal CLint at 1 μM / half-life at 1 μM / microsomal CLint at 1 h, 1 µM / half-life at 1 h, 1 µM: mouse, mouse liver microsomes, pooled, NADPH, 37° C.; for microsomal CLint at 1 μM / microsomal CLint at 1 h, 1 µM: read-out: Microsome Stability Mouse liver microsomes Cl; for half-life at 1 μM / half-life at 1 h, 1 µM: read-out: Microsome Stability Mouse liver microsomes T½. As for the experimental part: (§1) Compounds of the disclosure were screened in microsome stability assays. For the screen, test compounds were incubated at 37° C. with either human liver microsomes (Corning; #452117) or mouse liver microsomes (XenoTech; #M1000), pooled from multiple donors, at 1 μM in the presence of a NADPH regenerating system at 0.5 mg/mL microsomal protein. Positive controls included in the assay were testosterone (3A4 substrate), propafenone (2D6) and diclofenac (2C9). Samples were removed at different time points (0, 5, 10, 20, 30 and 60 minutes) and immediately mixed with cold acetonitrile containing internal standard (IS, 200 ng/mL tolbutamide and 200 ng/mL labetalol). Test compounds incubated with microsomes for 60 minutes without the NADPH regenerating system was also included. A single point for each test condition (n=1) was obtained, and samples were analyzed by LC/MS/MS. Disappearance of the test compound was assessed based on peak area ratios of analyte/IS (no standard curve).

Data set [2] is described as follows: Microsome stability assay, human liver microsomes. The class given is in vitro ADME. To be noted: 1 μM compound, 0.5 mg/mL microsomal protein; for microsomal CLint at 1 h, 1 µM / half-life at 1 h, 1 µM / microsomal CLint at 1 μM / half-life at 1 μM: human, human liver microsomes, pooled, NADPH, 37° C.; for microsomal CLint at 1 h, 1 µM / microsomal CLint at 1 μM: read-out: Microsome Stability Human liver microsomes Cl; for half-life at 1 h, 1 µM / half-life at 1 μM: read-out: Microsome Stability Human liver microsomes T½. As for the experimental part: as §1
(In general: Microsomes from liver hold many membrane-bound enzymes, among them those of drug oxidation.)

The target in data set [3] is HSD17B13 (Homo sapiens (Human), UniProt Q7Z5P4). Nature of the data set: HSD17B13 enzymatic inhibition assay (150 nM or 50 nM HSD17B13). In kind it is biochemical. To be noted: 50 nM HSD17B13; read-out: Inhibition of 50 nM of HSD17B13 IC50.
HSD17B13, sequence (Q7Z5P4 other isoform, or with tags, fused parts or gaps): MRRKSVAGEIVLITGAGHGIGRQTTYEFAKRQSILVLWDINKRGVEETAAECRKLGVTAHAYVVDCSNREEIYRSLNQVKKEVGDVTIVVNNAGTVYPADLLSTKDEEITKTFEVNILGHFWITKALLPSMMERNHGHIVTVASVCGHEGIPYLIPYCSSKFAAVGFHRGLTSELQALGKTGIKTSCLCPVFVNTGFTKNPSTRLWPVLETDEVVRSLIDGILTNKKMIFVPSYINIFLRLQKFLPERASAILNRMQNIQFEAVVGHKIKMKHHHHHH

As for `CCC1CCc2cc(O)ccc2C1NC(=O)c1ccc(C(F)(F)F)[nH]c1=O` (centres unmarked) [Compound 284, N-(2-ethyl-6-hydroxy-1,2,3,4-tetrahydronaphthalen-1-yl)-2-oxo-6-(trifluoromethyl)-1,2-dihydropyridine-3-carboxamide], in data set [1], the “Microsome Stability Mouse liver microsomes % Remaining @60 min” value is recorded as 76.40%, the microsomal CLint at 1 μM was under 9.6 µL/min/mg and the half-life at 1 μM is over 145 min. Moreover, in data set [2], the “Microsome Stability Human liver microsomes % Remaining @60 min” value was 70.70%; the microsomal CLint at 1 h, 1 µM amounted to 9.82 µL/min/mg; the half-life at 1 h, 1 µM came out at 141 min. For the same molecule, the IC50 in data set [3] turned out to be 340 nM.
Regarding `CCCC1CCc2cc(C)ccc2C1NC(=O)c1ccc(C(F)(F)F)[nH]c1=O` (centres unmarked) [Compound 285, N-(6-methyl-2-propyl-1,2,3,4-tetrahydronaphthalen-1-yl)-2-oxo-6-(trifluoromethyl)-1,2-dihydropyridine-3-carboxamide], in data set [1], the “Microsome Stability Mouse liver microsomes % Remaining @60 min” value worked out at 11.20%; the microsomal CLint at 1 h, 1 µM was 70.7 µL/min/mg; the half-life at 1 h, 1 µM came out at 19.6 min. Moreover, in data set [2], the “Microsome Stability Human liver microsomes % Remaining @60 min” value turned out to be 1.49%; the microsomal CLint at 1 h, 1 µM was determined as 137 µL/min/mg; the half-life at 1 h, 1 µM came out at 10.1 min. The IC50 in data set [3] came to 30 nM.
As for `CCCC1CCc2cc(Cl)ccc2C1NC(=O)c1ccc(C(F)(F)F)[nH]c1=O` (stereo not drawn) [Compound 286, N-(6-chloro-2-propyl-1,2,3,4-tetrahydronaphthalen-l-yl)-2-oxo-6-(trifluoromethyl)-1,2-dihydropyridine-3-carboxamide], in data set [1], the “Microsome Stability Mouse liver microsomes % Remaining @60 min” value was 38.20%; the microsomal CLint at 1 h, 1 µM came out at 29.6 µL/min/mg; the half-life at 1 h, 1 µM is 46.9 min. Besides, in data set [2], the “Microsome Stability Human liver microsomes % Remaining @60 min” value is reported as 27.10%; the microsomal CLint at 1 h, 1 µM amounted to 42.9 µL/min/mg; the half-life at 1 h, 1 µM stood at 32.3 min. In data set [3], the IC50 came to 190 nM.
Take `CC1CCc2cc(Cl)ccc2C1NC(=O)c1ccc(C(F)(F)F)[nH]c1=O` (centres unmarked) [Compound 293, N-(6-chloro-2-methyl-1,2,3,4-tetrahydronaphthalen-1-yl)-2-oxo-6-(trifluoromethyl)-1,2-dihydropyridine-3-carboxamide]: in data set [1], the “Microsome Stability Mouse liver microsomes % Remaining @60 min” value stood at 33.80%; the microsomal CLint at 1 h, 1 µM is 37.9 µL/min/mg; the half-life at 1 h, 1 µM came to 36.5 min. Further, in data set [2], the “Microsome Stability Human liver microsomes % Remaining @60 min” value turned out to be 0.14%; the microsomal CLint at 1 h, 1 µM amounted to 231 µL/min/mg; the half-life at 1 h, 1 µM stood at 6 min. In data set [3], the IC50 turned out to be 130 nM.
As to `Cc1ccc2c(c1)CCC(C)C2NC(=O)c1ccc(C(F)(F)F)[nH]c1=O` (centres unmarked) [Compound 294, N-(2,6-dimethyl-1,2,3,4-tetrahydronaphthalen-1-yl)-2-oxo-6-(trifluoromethyl)-1,2-dihydropyridine-3-carboxamide], in data set [1], the “Microsome Stability Mouse liver microsomes % Remaining @60 min” value is recorded as 33.80%; the microsomal CLint at 1 h, 1 µM came to 33.4 µL/min/mg; the half-life at 1 h, 1 µM turned out to be 41.5 min. Besides, in data set [2], the “Microsome Stability Human liver microsomes % Remaining @60 min” value turned out to be 0.10%; the microsomal CLint at 1 h, 1 µM turned out to be 643 µL/min/mg; the half-life at 1 h, 1 µM was determined as 2.15 min. For the same molecule, in data set [3], the IC50 is 90 nM.
For the molecule `CCC1Cc2cc(OC)ccc2C1NC(=O)c1ccc(C(F)(F)F)[nH]c1=O` (centres unmarked) [Compound 295, N-(2-ethyl-5-methoxy-2,3-dihydro-1H-inden-1-yl)-2-oxo-6-(trifluoromethyl)-1,2-dihydropyridine-3-carboxamide], in data set [1], the “Microsome Stability Mouse liver microsomes % Remaining @60 min” value was 69%; the microsomal CLint at 1 h, 1 µM was 12.7 µL/min/mg; the half-life at 1 h, 1 µM is 110 min. Further, in data set [2], the “Microsome Stability Human liver microsomes % Remaining @60 min” value was 1%; the microsomal CLint at 1 h, 1 µM worked out at 221 µL/min/mg; the half-life at 1 h, 1 µM is 6.26 min. Besides, the IC50 in data set [3] is 100 nM.
On to `CCC1CCc2cc(Cl)ccc2C1NC(=O)c1ccc(C(F)(F)F)[nH]c1=O` (centres unmarked) [Compound 297, N-(6-chloro-2-ethyl-1,2,3,4-tetrahydronaphthalen-1-yl)-2-oxo-6-(trifluoromethyl)-1,2-dihydropyridine-3-carboxamide], for which, in data set [1], the “Microsome Stability Mouse liver microsomes % Remaining @60 min” value came out at 36.10%; the microsomal CLint at 1 h, 1 µM came to 35.4 µL/min/mg; the half-life at 1 h, 1 µM came out at 39.1 min. In data set [2], the “Microsome Stability Human liver microsomes % Remaining @60 min” value was determined as 1.24%; the microsomal CLint at 1 h, 1 µM amounted to 149 µL/min/mg; the half-life at 1 h, 1 µM was 9.3 min. The IC50 in data set [3] is 110 nM.
Turning to `Cc1ccc2c(c1)[C@@H](O)CC[C@H]2NC(=O)c1ccc(C(F)(F)F)[nH]c1=O` [Compound 312, N-((1R,4S)-4-hydroxy-6-methyl-1,2,3,4-tetrahydronaphthalen-1-yl)-2-oxo-6-(trifluoromethyl)-1,2-dihydropyridine-3-carboxamide], in data set [1], the “Microsome Stability Mouse liver microsomes % Remaining @60 min” value amounted to 96.90%, the microsomal CLint at 1 μM is under 9.6 µL/min/mg and the half-life at 1 μM is over 145 min. In data set [2], the “Microsome Stability Human liver microsomes % Remaining @60 min” value is 78.40%, the microsomal CLint at 1 μM was under 9.6 µL/min/mg and the half-life at 1 μM was over 145 min. Also, the IC50 in data set [3] came out at 450 nM.
For `CCCC1=Cc2cc(C)ccc2C1NC(=O)c1ccc(C(F)(F)F)[nH]c1=O` (centres unmarked) [Compound 341, N-(5-methyl-2-propyl-1H-inden-1-yl)-2-oxo-6-(trifluoromethyl)-1,2-dihydropyridine-3-carboxamide], in data set [1], the “Microsome Stability Mouse liver microsomes % Remaining @60 min” value is given as 54.30%; the microsomal CLint at 1 h, 1 µM is 19.4 µL/min/mg; the half-life at 1 h, 1 µM turned out to be 71.3 min. In addition, in data set [2], the “Microsome Stability Human liver microsomes % Remaining @60 min” value was 1.70%; the microsomal CLint at 1 h, 1 µM was 132 µL/min/mg; the half-life at 1 h, 1 µM is 10.5 min. The IC50 in data set [3] is 70 nM.
As for `CCC[C@H]1Oc2ccc(C)cc2[C@@H]1NC(=O)c1ccc(C(F)(F)F)[nH]c1=O` [Compound 353, N-((2R,3S)-5-methyl-2-propyl-2,3-dihydrobenzofuran-3-yl)-2-oxo-6-(trifluoromethyl)-1,2-dihydropyridine-3-carboxamide], in data set [1], the “Microsome Stability Mouse liver microsomes % Remaining @60 min” value worked out at 28.90%, the microsomal CLint at 1 μM came out at 41.2 µL/min/mg and the half-life at 1 μM stood at 33.6 min. In addition, in data set [2], the “Microsome Stability Human liver microsomes % Remaining @60 min” value turned out to be 28.20%, the microsomal CLint at 1 μM was determined as 35.4 µL/min/mg and the half-life at 1 μM was determined as 39.1 min. The IC50 in data set [3] came to 520 nM.
With `CCC[C@H]1Oc2cc(C)ccc2[C@@H]1NC(=O)c1ccc(C(F)(F)F)[nH]c1=O` [Compound 358, N-((2R,3S)-6-methyl-2-propyl-2,3-dihydrobenzofuran-3-yl)-2-oxo-6-(trifluoromethyl)-1,2-dihydropyridine-3-carboxamide], in data set [1], the “Microsome Stability Mouse liver microsomes % Remaining @60 min” value turned out to be 1.01%, the microsomal CLint at 1 μM was 154 µL/min/mg and the half-life at 1 μM was 9 min. Further, in data set [2], the “Microsome Stability Human liver microsomes % Remaining @60 min” value is reported as 1%, the microsomal CLint at 1 μM amounted to 154 µL/min/mg and the half-life at 1 μM was 9 min. Further, the IC50 in data set [3] came out at 460 nM.
Consider `CCC[C@@H]1C[C@@H](NC(=O)c2ccc(C(F)(F)F)[nH]c2=O)c2cc(C)ccc2N1` [Compound 361, N-((2R,4R)-6-methyl-2-propyl-1,2,3,4-tetrahydroquinolin-4-yl)-2-oxo-6-(trifluoromethyl)-1,2-dihydropyridine-3-carboxamide], for which, in data set [1], the “Microsome Stability Mouse liver microsomes % Remaining @60 min” value is 52.90%, the microsomal CLint at 1 μM was 19.2 µL/min/mg and the half-life at 1 μM is 72.3 min. In data set [2], the “Microsome Stability Human liver microsomes % Remaining @60 min” value is on record as 60.50%, the microsomal CLint at 1 μM came to 17 µL/min/mg and the half-life at 1 μM worked out at 82 min. Moreover, the IC50 in data set [3] worked out at 300 nM.
Turning to `CC[C@@H]1C[C@H](NC(=O)c2ccc(C(F)(F)F)[nH]c2=O)c2ccc(C)cc2N1` [Compound 366, N-((2R,4S)-2-ethyl-7-methyl-1,2,3,4-tetrahydroquinolin-4-yl)-2-oxo-6-(trifluoromethyl)-1,2-dihydropyridine-3-carboxamide], in data set [1], the “Microsome Stability Mouse liver microsomes % Remaining @60 min” value is 87%, the microsomal CLint at 1 μM was under 9.6 µL/min/mg and the half-life at 1 μM is over 145 min. Also, in data set [2], the “Microsome Stability Human liver microsomes % Remaining @60 min” value was found to be 27.30%, the microsomal CLint at 1 μM came to 44.2 µL/min/mg and the half-life at 1 μM amounted to 31.3 min. For the same molecule, in data set [3], the IC50 came out at 60 nM.
In the case of `CCC[C@@H]1C[C@H](NC(=O)c2ccc(C(F)(F)F)[nH]c2=O)c2ccc(C)cc2N1` [Compound 368, N-((2R,4S)-7-methyl-2-propyl-1,2,3,4-tetrahydroquinolin-4-yl)-2-oxo-6-(trifluoromethyl)-1,2-dihydropyridine-3-carboxamide], in data set [1], the “Microsome Stability Mouse liver microsomes % Remaining @60 min” value came to 56.20%; the microsomal CLint at 1 h, 1 µM was found to be 18.1 µL/min/mg; the half-life at 1 h, 1 µM stood at 76.4 min. Also, in data set [2], the “Microsome Stability Human liver microsomes % Remaining @60 min” value was 51.70%; the microsomal CLint at 1 h, 1 µM amounted to 23.4 µL/min/mg; the half-life at 1 h, 1 µM was determined as 59.3 min. In data set [3], the IC50 stood at 370 nM.

One may read the IC50 as the concentration needed to halve the response being measured.
